According to PMC12977544, “Phenotypic high-throughput screening identifies modulators of gut microbial choline metabolism” (mBio, 2026):

Key:
[1] = tested on: conventional C57BL/6 mice; experiment: Serum TMAO in conventional mice after inhibitor treatment; format: in vivo, Mus musculus C57BL/6
Protocol: In a biosafety cabinet, a 300 mg/mL stock of sterile inhibitor in filter-sterilized DMSO was prepared. After this preparation, a working solution of 3 mg/mL of the inhibitor stock in sterile 1% hydroxyethyl cellulose/1% polysorbate 80 was prepared within 4 days of gavaging the mice and stored at room temperature. A low dose of the inhibitor was also prepared, using a working solution of 0.3 mg/mL of the inhibitor stock in sterile 1% hydroxyethyl cellulose/1% polysorbate 80. The vehicle was prepared in the same way with DMSO without inhibitor. […] All mice were administered by gavage with 3 mg/kg or 30 mg/kg of the inhibitor once a day (between 6 and 8 a.m.) for three consecutive days. A fecal sample was collected before the first gavage. At sacrifice, tissues collected were blood, cecal contents, a fecal pellet, proximal colon, distal small intestine, liver, and kidney. Mice were anesthetized with isoflurane and underwent cardiac puncture for a terminal blood draw, followed by cervical dislocation. Tissues were snap-frozen in liquid nitrogen. Blood was spun down at 8,000 × g for 8 min at room temperature; the resulting serum layer was removed and snap-frozen. […] […] was used for peak quantification, and internal standards were utilized as a comparison to calculate plasma concentrations. Statistical significance was calculated using an unpaired t-test.

[2] = Quantification of inhibitor 45 in serum and cecal contents of gnotobiotic mice (LC–MS/MS); format: in vivo, Mus musculus C57BL/6; details: 24 h after inhibitor gavage
Protocol: Female C57BL/6 germ-free mice (n = 8 per inhibitor group), 10–12 weeks of age in an isolator, were colonized with 200 µL of mix containing the five bacterial species mentioned above at ~10^8 bacterial cells/mL. Mice were fed a 1% choline diet (Envigo) ad libitum. Two weeks after colonization, mice were administrated by gavage with 3 mg/kg of the inhibitor or vehicle between 6 and 8 a.m. once a day for three consecutive days. After a 10-day washout period, mice were orally administered 30 mg/kg of the inhibitor once a day (same time as above) for three consecutive days, and blood was collected 24 h after the last gavage.
A fecal sample was collected before the first gavage. At sacrifice, tissues collected were blood, cecal contents, a fecal pellet, proximal colon, distal small intestine, liver, and kidney. Mice were anesthetized with isoflurane and underwent cardiac puncture for a terminal blood draw, followed by cervical dislocation. Tissues were snap-frozen in liquid nitrogen. Blood was spun down at 8,000 × g for 8 min at room temperature; the resulting serum layer was removed and snap-frozen. All snap-frozen tissues were stored at −80°C until needed.
A standard curve of inhibitor 45 spiked in commercial mouse serum (Sigma) was prepared. To 50 µL of serum sample, 450 µL of a mixture 75% acetonitrile, 25% methanol, 1% formic acid was added to precipitate proteins. […]

SMILES: Cc1ccc(-c2cc(C(=O)NCCCCCN3CCCCCC3)c(C)[nH]2)cc1C [Compound 45]
- Serum TMAO level relative to vehicle treatment ([1]; 30 mg/kg oral gavage daily for 3 days, 1% choline diet, P = 0.027): about 60 % of vehicle treatment
- Decrease of serum TMAO levels ([1]; 30 mg/kg, n = 6, P = 0.027): ~ 40%
- Concentration in wet cecal mass [2]: 463 pmol/µg
- concentration at 24 h ([2]; female, C57BL/6, mouse, serum, oral, 30 mg/kg, limit of detection 1 µM): < 1000 nM
